Laboratory results published in patent US11465984B2, “Compound having ERK kinase inhibitory activity and use thereof” (SHANGHAI HAIHE PHARMACEUTICAL CO., LTD., priority 2017, dated 2022).
Read-outs that look alike come from different tables or passages of the source.

How the values were obtained:
ERK2 kinase = ERK2 kinase (Homo sapiens (Human), UniProt P28482); test: In vitro enzyme activity assay, ERK2 kinase (Z'-LYTE); assay type: biochemical
Protocol: Half inhibitory activity of the compounds of the invention against ERK2 kinase (IC50 value) was determined in this Example.
• Enzyme: extracellular signal-regulated kinase ERK2 kinase (PV3595, Invitrogen) • Kit: Z′-LYTE® Protein Kinase Assay Kit-Ser/Thr 3 Peptide (PV3176, Invitrogen) • Kit components: The substrate Z′-LYTE™ Ser/Thr 3 Peptide (PV3200) • The phosphorylation substrate Z′-LYTE™ Ser/Thr 3 Phospho-peptide (PV3215) • 5× kinase buffer: 250 mM HEPES (pH 7.5), 50 mM MgCl2, • 5 mM EGTA, 0.05% BRIJ-35 (PV3189, Invitrogen) • ATP (PV3227, Invitrogen) • Development Reagent A (PV3295, Invitrogen) • Development Buffer (P3127, Invitrogen) • Stop Reagent (P3094, Invitrogen) • Microplate reader: The multil-mode microplate reader PerkinElmer EnVision® • Microplate: black shallow 384-well microplate (6008269, PerkinElmer) (2). Assay Protocol:
The substrate Z′-LYTE™ Ser/Thr 3 Peptide, the phosphorylation substrate Z′-LYTE™ Ser/Thr 3 Phospho-peptide, 1× kinase buffer (5× kinase buffer was diluted with ultra pure water by five times), ATP, Development Reagent A, Development Buffer, Stop Reagent were balanced to room temperature for use. The screening concentrations for detecting the effect of the compounds of the invention on the ERK kinase activity were seven 3-fold serial dilutions starting from 1 μM (from 0.2 μM for the positive drug control) using 4% DMSO as co-solvent. 5 μL enzyme system (50 mM HEPES pH 7.5, 1 mM EGTA, 10 mM MgCl2, 0.01% Brij-35, 4 uM substrate, 0.8 ng/μL enzyme), 2.5 μL Compound, 2.5 μL 400 μM ATP were added into 384 well microplate, followed by incubation at room temperature for 60 min in the dark. After the reaction was completed, 5 μl the developing agent (Development Reagent A) diluted with the developing buffer (Development Buffer) was added to all reaction wells, followed by incubation at the room temperature for 60 min in the dark. 5 μL the terminating agent was added to each well to terminate the reaction. The fluorescence was determined using the multil-mode microplate reader PerkinElmer EnVision® (excitation wavelength 400 nm, emission wavelength 460 nm and 528 nm).
The inhibition rate of each well was calculated from 100% phosphorylation substrate well and 0% phosphorylation substrate well using the data analysis method below: phosphorylation %=1−{(emission rate×F100%−C100%)/[C0%−C100%+emission rate×(F100%−F0%)]}×100 inhibition %=100×(1−phosphorylation % of the test compound well/phosphorylation % of the 0% inhibition control) • wherein: • emission rate=fluorescence emission of the sample at 445 nm/fluorescence emission of the sample at 520 nm • F100%=the average fluorescence emission of the control well of 100% phosphorylation substrate at 520 nm • F0%=the average fluorescence emission of the control well of 0% phosphorylation substrate at 520 nm • C100%=the average fluorescence emission of the control well of 100% phosphorylation substrate at 445 nm • C0%=the average fluorescence emission of the control well of 0% phosphorylation substrate at 445 nm
Tests were carried out in duplicate. IC50 values were calculated from the inhibition of the kinase by the test compounds at a range of different concentrations.

[1] = Chemical stability assay in solutions with various pH values (UPLC); assay type: physicochemical
Source text: 1. Detection Means and Conditions Used in the Chemical Stability Assay
• Detection method: Ultra-high performance liquid chromatography (UPLC) Chromatographic Conditions: • System: Ultra-high performance liquid chromatography system including pump, automatic sample injector, detector, and column oven • Column Waters Acquity UPLC BEH C18 (2.1*50 mm, 1.7 μm) • Detector: PDA detector • Detection wavelength: 225 nm • Mobile phase: A: 0.05% trifluoroacetic acid in water • B: acetonitrile • Gradient:
• Flow rate: 0.4 ml/min • Column temperature: 40° C. • Injecion volume: 2 μl 2. Study on the Chemical Stability of the Compounds of the Invention (1). Formulation of Solutions of Test Compound P9
Compound P9 was formulated as solutions in different buffer systems at a concentration of 0.2 mg/ml using PEG400 as cosolvent. These solutions were used for chemical stability study. The solutions with various pH values were formulated as follows: […]
Conditions for the chemical stability assay: the solutions of Compound P9 with various pH values were stored at 37° C. for 24 h. The content of Compound P9 was determined by HPLC at 0, 4, 8, 12, 14 and 24 h. […]

Chain of ERK2 kinase (P28482 whole entry): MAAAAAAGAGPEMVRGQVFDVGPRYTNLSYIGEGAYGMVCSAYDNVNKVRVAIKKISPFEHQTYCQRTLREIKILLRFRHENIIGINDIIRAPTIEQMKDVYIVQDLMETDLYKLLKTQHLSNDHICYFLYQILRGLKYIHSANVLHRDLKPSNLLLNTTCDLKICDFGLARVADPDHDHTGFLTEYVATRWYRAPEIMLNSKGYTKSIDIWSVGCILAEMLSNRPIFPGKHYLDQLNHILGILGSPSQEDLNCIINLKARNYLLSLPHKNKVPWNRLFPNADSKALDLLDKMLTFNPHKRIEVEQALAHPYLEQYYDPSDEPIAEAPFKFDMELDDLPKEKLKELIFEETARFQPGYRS

IC50 (ERK2 kinase; class symbols, read-out: ERK2 IC50): ≤ 10 nM
IC50 (ERK2 kinase; read-out: IC50 against ERK2 kinase): 3.3 nM
Percentage (%) of the peak area of the total impurity ([1]; solution pH 2.0, 37° C., 0 h): 0.84%
Percentage (%) relative to the peak area of the compound at the original point ([1]; solution pH 2.0, 37° C., 0 h): 100.0%
Percentage (%) of the peak area of the total impurity ([1]; solution pH 2.0, 37° C., 4 h): 0.85%
Percentage (%) relative to the peak area of the compound at the original point ([1]; solution pH 2.0, 37° C., 4 h): 100.1%
Percentage (%) of the peak area of the total impurity ([1]; solution pH 2.0, 37° C., 8 h): 0.85%
Percentage (%) relative to the peak area of the compound at the original point ([1]; solution pH 2.0, 37° C., 8 h): 101.0%
Percentage (%) of the peak area of the total impurity ([1]; solution pH 2.0, 37° C., 12 h): 0.85%
Percentage (%) relative to the peak area of the compound at the original point ([1]; solution pH 2.0, 37° C., 12 h): 100.6%
Percentage (%) of the peak area of the total impurity ([1]; solution pH 2.0, 37° C., 14 h): 0.84%
Percentage (%) relative to the peak area of the compound at the original point ([1]; solution pH 2.0, 37° C., 14 h): 100.6%
Percentage (%) of the peak area of the total impurity ([1]; solution pH 2.0, 37° C., 24 h): 0.85%
Percentage (%) relative to the peak area of the compound at the original point ([1]; solution pH 2.0, 37° C., 24 h): 101.0%
Percentage (%) of the peak area of the total impurity ([1]; solution pH 6.8, 37° C., 0 h): 0.75%
Percentage (%) relative to the peak area of the compound at the original point ([1]; solution pH 6.8, 37° C., 0 h): 100.0%
Percentage (%) of the peak area of the total impurity ([1]; solution pH 6.8, 37° C., 4 h): 0.69%
Percentage (%) relative to the peak area of the compound at the original point ([1]; solution pH 6.8, 37° C., 4 h): 101.0%
Percentage (%) of the peak area of the total impurity ([1]; solution pH 6.8, 37° C., 8 h): 0.71%
Percentage (%) relative to the peak area of the compound at the original point ([1]; solution pH 6.8, 37° C., 8 h): 101.4%
Percentage (%) of the peak area of the total impurity ([1]; solution pH 6.8, 37° C., 12 h): 0.71%
Percentage (%) relative to the peak area of the compound at the original point ([1]; solution pH 6.8, 37° C., 12 h): 101.6%
Percentage (%) of the peak area of the total impurity ([1]; solution pH 6.8, 37° C., 14 h): 0.68%
Percentage (%) relative to the peak area of the compound at the original point ([1]; solution pH 6.8, 37° C., 14 h): 100.8%
Percentage (%) of the peak area of the total impurity ([1]; solution pH 6.8, 37° C., 24 h): 0.68%
Percentage (%) relative to the peak area of the compound at the original point ([1]; solution pH 6.8, 37° C., 24 h): 101.7%
Percentage (%) of the peak area of the total impurity ([1]; solution pH 7.4, 37° C., 0 h): 0.72%
Percentage (%) relative to the peak area of the compound at the original point ([1]; solution pH 7.4, 37° C., 0 h): 100.0%
Percentage (%) of the peak area of the total impurity ([1]; solution pH 7.4, 37° C., 4 h): 0.67%
Percentage (%) relative to the peak area of the compound at the original point ([1]; solution pH 7.4, 37° C., 4 h): 100.3%
Percentage (%) of the peak area of the total impurity ([1]; solution pH 7.4, 37° C., 8 h): 0.65%
Percentage (%) relative to the peak area of the compound at the original point ([1]; solution pH 7.4, 37° C., 8 h): 101.4%
Percentage (%) of the peak area of the total impurity ([1]; solution pH 7.4, 37° C., 12 h): 0.67%
Percentage (%) relative to the peak area of the compound at the original point ([1]; solution pH 7.4, 37° C., 12 h): 100.9%
Percentage (%) of the peak area of the total impurity ([1]; solution pH 7.4, 37° C., 14 h): 0.71%
Percentage (%) relative to the peak area of the compound at the original point ([1]; solution pH 7.4, 37° C., 14 h): 101.3%
Percentage (%) of the peak area of the total impurity ([1]; solution pH 7.4, 37° C., 24 h): 0.74%
Percentage (%) relative to the peak area of the compound at the original point ([1]; solution pH 7.4, 37° C., 24 h): 101.1%
chemical stability (conclusion in words) ([1]; storage in solutions of various pH at 37° C. for 24 h): good chemical stability
SMILES: Cn1nccc1Nc1cc(-c2cc(F)c3c(c2)CCN3C(=O)Cc2cccnc2Cl)ccn1 [Example P9, 2-(2-chloropyridin-3-yl)-1-(7-fluoro-5-(2-((1-methyl-1H-pyrazol-5-yl)amino)pyridin-4-yl)indolin-1-yl)ethan-1-one]
